Results published in paper PMC9127750, “Structure-based design of CDC42 effector interaction inhibitors for the treatment of cancer” (Cell reports, 2022).

Test system: WM3248 melanoma cells, 486 antibodies
Assay: Reverse phase protein arrays (RPPA);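 as to CA9.R.C RPPA level: ratio of treated to vehicle (0 µM) normalized linear protein signal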;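 as to RPPA Ambra1 pS52.R.C: ratio of treated to vehicle (0 µM) normalized linear protein signal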;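 as to RPPA Atg5.R.C: ratio of treated to vehicle (0 µM) normalized linear protein signal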;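 as to RPPA Bim.R.V: ratio of treated to vehicle (0 µM) normalized linear protein signal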
Assay type: cell-based, Human
Conditions: 5 uM
Excerpt: Pellets were snap frozen in liquid nitrogen and shipped to MD Anderson Cancer Center core RPPA facility for RPPA analysis (Table S5). Three biological replicates for each sample were generated.
Nomenclatures on the RPPA heatmaps: name_of_antibody.species_of_antibody.status_of_antibody. V - antibody validated; C - validation of antibody in progress; Q - antibody nonspecific; E – under evaluation; antibodies raised in M - mouse, G - goat, R - rabbit, or T - rat.

With CN(C)c1cccc(Nc2cc(-c3ccccc3)nc(C3CCNCC3)n2)c1 [ARN22089, N1,N1-dimethyl-N3-(6-phenyl-2-(piperidin-4-yl)pyrimidin-4-yl)benzene-1,3-diamine] the “RPPA Akt_pT308.R.V” value (5W3) was 0.946, the “RPPA Ambra1_pS52.R.C” value (5W3) was 0.917 and the “RPPA Annexin.I.M.V” value (5W3) was 0.971. The “RPPA Annexin.VII.M.V” value (5W3) was 1.007, the “RPPA Atg3.R.V” value (5W3) was 1.133 and the “RPPA Atg4B.R.C” value (5W3) was 1.148. For the same compound, the “RPPA Atg5.R.C” value (5W3) was 0.936, the “RPPA Atg7.R.V” value (5W3) was 1.164 and the “RPPA Aurora.A.R.C” value (5W3) was 1.000. The “RPPA Aurora.ABC_pT288_pT232_pT198.R.C” value (5W3) was 0.878, the “RPPA Aurora.B.R.V” value (5W3) was 0.688 and the “RPPA Axl.R.V” value (5W3) was 1.276. For the same compound, the “RPPA B7.H4.R.C” value (5W3) was 1.076, the “RPPA B.Raf_pS445.R.V” value (5W3) was 1.159 and the “RPPA BAP1.M.V” value (5W3) was 0.823. For the same compound, the “RPPA BCL2A1.R.V” value (5W3) was 0.750, the “RPPA BMK1.Erk5_pT218_Y220.R.V” value (5W3) was 1.014 and the “RPPA BRCA1.M.C” value (5W3) was 0.946. For the same compound, the “RPPA BRD4.R.V” value (5W3) was 1.138, the “RPPA Bad_pS112.R.V” value (5W3) was 1.056 and the “RPPA Bak.R.C” value (5W3) was 1.134. The “RPPA Bax.R.V” value (5W3) was 0.916, the “RPPA Bcl2.R.C” value (5W3) was 0.798 and the “RPPA Bcl.xL.R.V” value (5W3) was 0.681. The “RPPA Beclin.R.C” value (5W3) was 0.789, the “RPPA Bid.R.C” value (5W3) was 1.142 and the “RPPA Bim.R.V” value (5W3) was 0.991. For the same compound, the “RPPA X4E.BP1.R.V” value (5W3) was 1.157, the “RPPA X4E.BP1_pT37_T46.R.V” value (5W3) was 0.968 and the “RPPA X14.3.3.zeta.R.V” value (5W3) was 0.946. The “RPPA X14.3.3βR.V” value (5W3) was 1.033, the “RPPA X14.3.3εM.C” value (5W3) was 0.879 and the “RPPA X53BP1.R.V” value (5W3) was 0.922. For the same compound, the “RPPA b.Catenin.R.V” value (5W3) was 0.837, the “RPPA b.Catenin_pT41_S45.R.V” value (5W3) was 0.998 and the “RPPA c.Abl.R.V” value (5W3) was 1.059. The “RPPA c.Abl_pY412.R.C” value (5W3) was 1.150, the “RPPA c.IAP2.R.C” value (5W3) was 1.026 and the “C.Raf.R.C RPPA level” value (Average) was 1.065. For the same compound, the “C.Raf_pS338.R.V RPPA level” value (Average) was 1.113, the “CA9.R.C RPPA level” value (Average) was 0.982 and the “CD2.M.C RPPA level” value (Average) was 1.031. For the same compound, the “CD4.R.V RPPA level” value (Average) was 1.062, the “CD5.M.C RPPA level” value (Average) was 1.017 and the “CD20.R.C RPPA level” value (Average) was 0.788. For the same compound, the “CD26.R.V RPPA level” value (Average) was 0.939, the “CD29.M.V RPPA level” value (Average) was 1.028 and the “CD31.M.V RPPA level” value (Average) was 1.028. For the same compound, the “CD44.R.C RPPA level” value (Average) was 0.921, the “CD45.M.V RPPA level” value (Average) was 1.027 and the “CD49b.M.V RPPA level” value (Average) was 0.960. For the same compound, the “CD68.M.C RPPA level” value (Average) was 1.012, the “CD74.M.V RPPA level” value (Average) was 0.998 and the “CD134.R.V RPPA level” value (Average) was 1.020. For the same compound, the “CD171.M.V RPPA level” value (Average) was 0.844, the “CDK1_pT14.R.C RPPA level” value (Average) was 1.060 and the “CDK9.R.V RPPA level” value (Average) was 0.980. The “CDT1.R.V RPPA level” value (Average) was 1.028, the “CENP.A.R.V RPPA level” value (Average) was 0.953 and the “CHD1L.R.V RPPA level” value (Average) was 1.018. For the same compound, the “CIITA.R.C RPPA level” value (Average) was 0.895, the “COG3.R.V RPPA level” value (Average) was 1.097 and the “CRABP1.R.C RPPA level” value (Average) was 1.004. For the same compound, the “CRABP2.R.V RPPA level” value (Average) was 1.035, the “CREB_pS133.R.C RPPA level” value (Average) was 1.124 and the “CSK.R.C RPPA level” value (Average) was 0.918. The “Calnexin.R.V RPPA level” value (Average) was 0.992, the “Caspase.7.cleaved..R.C RPPA level” value (Average) was 1.029 and the “Caspase.8.M.Q RPPA level” value (Average) was 0.956. The “Caspase.8.cleaved.R.C RPPA level” value (Average) was 1.054, the “Cdc6.R.V RPPA level” value (Average) was 0.980 and the “Cdc42.R.C RPPA level” value (Average) was 1.028. The “Chk1_pS296.R.V RPPA level” value (Average) was 1.083, the “Chk1_pS345.R.C RPPA level” value (Average) was 0.981 and the “Chk2.M.V RPPA level” value (Average) was 0.925. For the same compound, the “Chk2_pT68.R.C RPPA level” value (Average) was 1.151, the “Claudin.7.R.V RPPA level” value (Average) was 0.907 and the “Collagen.VI.R.V RPPA level” value (Average) was 1.059. For the same compound, the “Complex.II.Subunit.M.V RPPA level” value (Average) was 0.933, the “Connexin.43.R.C RPPA level” value (Average) was 1.140 and the “Coup.TFII.R.C RPPA level” value (Average) was 1.033.
